# Results reported in paper PMC8294059, “Identification and Immune Assessment of T Cell Epitopes in Five Plasmodium falciparum Blood Stage Antigens to Facilitate Vaccine Candidate Selection and Optimization” (Frontiers in Immunology, 2021).
# Where a SMILES comes first, the peptide text is derived from it.
# Assays:
# Test in all cases: biochemical
# Type in all cases: binding
# HLA-DRB1*0101 = target: T1, HLA-DRB1*0101 (Homo sapiens, UniProt P01903+P01911, A100R/D57E/F55L/F60I/F76Y/I96L/L162R/M171V/P40L/Q125E/R42F/V115G/Y59C); conditions: binding inhibition assay; NB = non-binder (no dose-dependent inhibition); read-out: DRB1*0101 IC50
# T1 construct: purchased
# Procedure, shortened: (§1)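 HLA-peptide complexes are captured with anti-HLA-DR antibody, and bound reference is quantified by europium-probe time-resolved fluorescence.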
# HLA-DRB1*0401 = target: T2, HLA-DRB1*0401 (Homo sapiens, UniProt P01903+P01911, A100K/A169T/F76Y/I96L/K127E/L162R/M171V/N62H/P40V/Q125Y/R42H/S133A/S149N/S66Y/V115G/V209L/W38E); conditions: binding inhibition assay; NB = non-binder (no dose-dependent inhibition); read-out: DRB1*0401 IC50
# T2 construct: purchased
# Procedure, shortened: as §1
# HLA-DRB1*0701 = HLA-DRB1*0701 (Homo sapiens, UniProt P01903+P01911, A100R/A102G/A103Q/D57E/D86V/E43K/F76Y/K127E/L162R/M171V/P40G/Q125H/Q99D/R33Q/R42Y/R54Q/S133A/S66F/T210M/V115G/Y107V/Y59L/Y89S); conditions: binding inhibition assay; NB = non-binder (no dose-dependent inhibition); read-out: DRB1*0701 IC50
# Procedure, shortened: as §1
# HLA-DRB1*0801 = HLA-DRB1*0801 (Homo sapiens, UniProt P01903+P01911, A100R/A103L/A169T/D86S/F76Y/H45Y/I96F/K41T/L162R/M171V/P40S/Q125H/Q178H/Q39Y/Q99D/R218S/R42G/S66Y/V115G/W38E); conditions: binding inhibition assay; NB = non-binder (no dose-dependent inhibition); read-out: DRB1*0801 IC50
# Procedure, shortened: as §1
# HLA-DRB1*1101 = HLA-DRB1*1101 (Homo sapiens, UniProt P01903+P01911, A100R/A169T/A87E/I96F/K41T/L162R/M171V/P40S/Q125H/Q178H/Q39Y/Q99D/R42S/S66Y/T262R/V115G/W38E); conditions: binding inhibition assay; NB = non-binder (no dose-dependent inhibition); read-out: DRB1*1101 IC50
# Sequence of HLA-DRB1*1101 (P01903 26-254 limits assumed, other chains not shown): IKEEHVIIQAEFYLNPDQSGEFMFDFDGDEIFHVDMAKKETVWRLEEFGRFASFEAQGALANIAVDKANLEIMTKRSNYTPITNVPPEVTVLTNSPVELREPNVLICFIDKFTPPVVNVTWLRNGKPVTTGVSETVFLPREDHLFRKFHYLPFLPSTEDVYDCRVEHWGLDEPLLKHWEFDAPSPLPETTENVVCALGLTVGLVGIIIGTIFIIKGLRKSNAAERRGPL
# Procedure, shortened: as §1
# HLA-DRB1*1301 = HLA-DRB1*1301 (Homo sapiens, UniProt P01903+P01911, A100E/A169T/K41T/L162R/M171V/P40S/Q125H/Q178H/Q39Y/Q99D/R42S/S66N/T262R/W38E/Y61H); conditions: binding inhibition assay; NB = non-binder (no dose-dependent inhibition); read-out: DRB1*1301 IC50
# Procedure, shortened: as §1
# HLA-DRB1*1501 = target: T3, HLA-DRB1*1501 (Homo sapiens, UniProt P01903+P01911); conditions: binding inhibition assay; NB = non-binder (no dose-dependent inhibition); read-out: DRB1*1501 IC50
# T3 construct: purchased
# Procedure, shortened: as §1
SMILES,IC50 (HLA-DRB1*0101),IC50 (HLA-DRB1*0401),IC50 (HLA-DRB1*0701),IC50 (HLA-DRB1*0801),IC50 (HLA-DRB1*1101),IC50 (HLA-DRB1*1301),IC50 (HLA-DRB1*1501)
CC[C@H](C)[C@H](NC(=O)CNC(=O)[C@H](CCC(N)=O)NC(=O)[C@H](CO)NC(=O)[C@H](CO)NC(=O)[C@H](CO)NC(=O)[C@H](Cc1ccc(O)cc1)NC(=O)[C@@H](NC(=O)[C@H](Cc1ccccc1)NC(=O)[C@H](CC(C)C)NC(=O)[C@@H](NC(=O)[C@H](CCCNC(=N)N)NC(=O)[C@H](CC(N)=O)NC(=O)[C@H](CCC(=O)O)NC(=O)[C@H](CC(=O)O)NC(C)=O)[C@@H](C)O)[C@@H](C)CC)C(=O)N[C@@H](Cc1ccc(O)cc1)C(=O)N[C@@H](CC(N)=O)C(=O)N[C@H](C(=O)N[C@@H](Cc1c[nH]cn1)C(=O)N[C@H](C(N)=O)[C@@H](C)O)[C@@H](C)CC [CYRPA_008] (Ac-DENRTLFIYSSSQGIYNIHT-NH2),4 nM,1.05 µM,219 nM,11.5 µM,1130 nM,6.98 µM,50 nM
CC[C@H](C)[C@H](NC(=O)[C@H](CC(=O)O)NC(=O)[C@H](Cc1ccc(O)cc1)NC(=O)[C@H](CCC(=O)O)NC(=O)[C@H](CC(N)=O)NC(=O)[C@H](CCCNC(=N)N)NC(=O)[C@H](C)NC(=O)[C@H](CCCCN)NC(=O)[C@H](C)NC(=O)[C@H](Cc1ccccc1)NC(=O)[C@H](Cc1ccc(O)cc1)NC(=O)[C@H](CC(C)C)NC(=O)[C@@H](NC(=O)[C@H](Cc1ccccc1)NC(=O)[C@H](Cc1ccccc1)NC(=O)[C@H](CO)NC(=O)[C@H](C)NC(C)=O)C(C)C)C(=O)N[C@@H](CCCCN)C(N)=O [EBA175_001B] (Ac-ASFFVLYFAKARNEYDIK-NH2),678 nM,2.27 µM,421 nM,9.88 µM,520 nM,2.24 µM,265 nM
CC[C@H](C)[C@H](NC(=O)[C@H](CCCNC(=N)N)NC(=O)[C@H](CO)NC(=O)[C@@H](NC(=O)[C@H](CCCNC(=N)N)NC(=O)[C@@H](NC(=O)[C@H](C)NC(=O)[C@H](CC(N)=O)NC(=O)[C@@H](NC(=O)[C@@H]1CCCN1C(=O)[C@@H](NC(=O)[C@H](Cc1ccc(O)cc1)NC(=O)[C@H](CCCCN)NC(=O)[C@H](CC(N)=O)NC(=O)[C@H](CCC(N)=O)NC(=O)[C@H](CCCCN)NC(C)=O)C(C)C)[C@@H](C)CC)C(C)C)C(C)C)C(=O)N[C@@H](CC(C)C)C(=O)N[C@@H](CO)C(=O)N[C@@H](Cc1ccccc1)C(=O)N[C@@H](CC(C)C)C(=O)N[C@@H](CC(=O)O)C(=O)N[C@@H](CO)C(N)=O [EBA175_004] (Ac-KQNKYVPINAVRVSRILSFLDS-NH2),4 nM,18.2 µM,18 nM,6.12 µM,396 nM,1.36 µM,2070 nM
CC[C@H](C)[C@H](NC(=O)[C@H](CO)NC(=O)[C@@H](NC(=O)[C@@H]1CCCN1C(=O)[C@@H](NC(=O)[C@H](CC(=O)O)NC(C)=O)C(C)C)[C@@H](C)CC)C(=O)N[C@H](C(=O)N[C@@H](CCCNC(=N)N)C(=O)N[C@@H](CC(N)=O)C(=O)N[C@@H](CC(N)=O)C(=O)N[C@@H](CCC(=O)O)C(=O)N[C@@H](CCC(N)=O)C(=O)N[C@H](C(=O)N[C@@H](CO)C(=O)N[C@@H](CCC(N)=O)C(=O)N[C@@H](CCC(=O)O)C(=O)N[C@@H](C)C(N)=O)[C@@H](C)O)[C@@H](C)CC [EBA175_014] (Ac-DVPISIIRNNEQTSQEA-NH2),6150 nM,3.81 µM,13300 nM,18.7 µM,16700 nM,14.1 µM,3090 nM
